The record followed here is ChEMBL document CHEMBL3714753, “Substituted tetrahydroquinolines, phenylacetic acids and benzoic acids as hepatocyte nuclear factor 4 (hnf-4 ) modulator compounds” (2005).

The target in assay [1] is T1, Hepatocyte nuclear factor 4-alpha (Homo sapiens, UniProt P41235).
T1 sequence (P41235 whole entry): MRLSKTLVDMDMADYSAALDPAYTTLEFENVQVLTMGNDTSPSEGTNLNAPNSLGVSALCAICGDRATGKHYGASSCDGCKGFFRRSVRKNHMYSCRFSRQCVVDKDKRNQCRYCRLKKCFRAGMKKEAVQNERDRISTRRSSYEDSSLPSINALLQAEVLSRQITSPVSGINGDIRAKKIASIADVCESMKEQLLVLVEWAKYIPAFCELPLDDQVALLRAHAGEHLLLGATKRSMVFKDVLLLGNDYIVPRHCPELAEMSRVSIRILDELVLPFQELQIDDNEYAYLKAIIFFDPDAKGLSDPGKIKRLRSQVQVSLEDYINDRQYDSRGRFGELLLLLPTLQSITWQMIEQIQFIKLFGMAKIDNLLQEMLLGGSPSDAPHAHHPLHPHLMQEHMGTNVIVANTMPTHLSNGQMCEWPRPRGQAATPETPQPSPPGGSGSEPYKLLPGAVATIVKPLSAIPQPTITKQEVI
In words: Displacement of radiolabeled methyl-4-[5,6,7,8-tetrahydro-5,5,8,8-tetramethyl-3-ethyloxy-2-naphthalenyl]benzoyl benzoate from HNF4alpha (unknown origin).

In assay [2] the target is T2, Hepatocyte nuclear factor 4-alpha (Rattus norvegicus) (UniProt P22449).
T2 sequence (whole entry): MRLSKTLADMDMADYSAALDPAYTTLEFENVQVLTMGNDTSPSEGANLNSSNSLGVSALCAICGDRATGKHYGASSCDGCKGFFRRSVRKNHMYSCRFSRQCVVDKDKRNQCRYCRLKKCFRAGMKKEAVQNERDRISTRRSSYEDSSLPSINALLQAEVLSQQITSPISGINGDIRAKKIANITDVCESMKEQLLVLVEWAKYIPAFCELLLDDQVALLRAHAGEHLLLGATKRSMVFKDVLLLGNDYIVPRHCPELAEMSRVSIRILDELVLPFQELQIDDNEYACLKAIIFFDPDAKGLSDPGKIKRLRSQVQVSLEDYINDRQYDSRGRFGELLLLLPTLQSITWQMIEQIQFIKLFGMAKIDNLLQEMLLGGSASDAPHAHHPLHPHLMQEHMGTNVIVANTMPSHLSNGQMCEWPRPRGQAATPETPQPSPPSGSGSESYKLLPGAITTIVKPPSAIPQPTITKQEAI
Kind of assay: Agonist activity at rat HNF4alpha1 expressed in African green monkey CV1 cells incubated for 24 hrs by firefly luciferase reporter gene assay relative to LGOI00695. Format: functional, cell-based. Conditions: CV-1.

For assay [3], the target named is T3, Hepatocyte nuclear factor 4-alpha (Rattus norvegicus, UniProt P22449).
T3 sequence (P22449 whole entry): T2 sequence (whole entry)
Kind of assay: Agonist activity at rat HNF4alpha1 expressed in African green monkey CV1 cells incubated for 24 hrs by firefly luciferase reporter gene assay. The assay is classed as functional, cell-based, CV-1. A general note: In a reporter assay the amount or activity of a reporter protein is the signal.

Assay [4] concerns the target T2, Hepatocyte nuclear factor 4-alpha (Rattus norvegicus). In words: Antagonist activity against rat HNF4alpha1 expressed in African green monkey CV1 cells assessed as inhibition of LGOI00695-induced receptor activation incubated for 24 hrs by firefly luciferase reporter gene assay relative to control. The assay is classed as functional, cell-based. Conditions: CV-1.

Assay [5] concerns the target T3, Hepatocyte nuclear factor 4-alpha. Kind of assay: Antagonist activity against rat HNF4alpha1 expressed in African green monkey CV1 cells assessed as inhibition of LGOI00695-induced receptor activation incubated for 24 hrs by firefly luciferase reporter gene assay. Format: functional, cell-based, CV-1.

The Ki is the equilibrium dissociation constant of an inhibitor or competing ligand from its target. As usually defined, the EC50 is the concentration needed to bring the measured effect to its halfway point. The compound `Cc1cc2c(cc1C)[C@H]1OCCC[C@H]1[C@@H](c1ccc(C(=O)O)cc1)N2` (relative stereo) came in with a Ki in assay [1] of 0.135 µM. In assay [2], this compound gave an Efficacy of 60%. In assay [3], this compound displayed an EC50 of 1.73 µM.
For `COC(=O)c1ccc([C@H]2Nc3ccccc3[C@H]3OCCC[C@@H]23)cc1` (relative stereo), the affinity in assay [1], expressed as Ki, was 0.234 µM. The Efficacy in assay [2] came to 165%. The same compound gave an EC50 in assay [3] of 0.426 µM.
The IC50 is the concentration that gives 50% inhibition. `O=C(O)c1ccc(C2Nc3ccc4ccccc4c3[C@H]3OCCC[C@@H]23)cc1` (relative stereo) returned a Ki in assay [1] of 2.17 µM. Moreover, in assay [4], the Efficacy worked out at 69%. The IC50 in assay [5] was 0.3 µM.
Take `O=C(O)Cc1ccc([C@H]2Nc3ccccc3[C@H]3OCCC[C@@H]23)cc1` (relative stereo): affinity in assay [1] was put at a Ki of 0.219 µM. In assay [2], this compound came in with an Efficacy of 134%. In assay [3], the midpoint of the response, the EC50, lay at 0.649 µM.
For `O=C(O)c1ccc(C2Nc3ccc4ccccc4c3[C@H]3OCC[C@@H]23)cc1` (relative stereo), in that order: 1.07 µM, 42% and 0.778 µM.
